Test results as given in PubChem BioAssay AID2060500 (Molecular Pharmacology Branch, DTP, NCI, 2025).

Tested on: 596521-263-R-J1-PDC complex spheroids, viability % of control
Test: Anticancer human tumor 596521-263-R-J1-PDC patient-derived soft tissue sarcoma cell line growth inhibition [GQUAD]
Conditions: for IC50: curve of first compound; for viability, T/C: stronger effect = lower value
In short: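 Viability of tumor cells grown as complex spheroids with endothelial and stromal cells, exposed to drug combinations. Top concentration at or near clinical Cmax (else 10 microM), diluted in half-log increments.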

[1] = second compound 0.0316 µM, first compound 0.0316 µM
[2] = second compound 0.0316 µM, first compound 0.1 µM
[3] = second compound 0.0316 µM, first compound 0.316 µM
[4] = second compound 0.0316 µM, first compound 1 µM
[5] = second compound 0.0316 µM, first compound 3.16 µM
[6] = second compound 0.0316 µM, first compound 10 µM
[7] = second compound 0.1 µM, first compound 0.0316 µM
[8] = second compound 0.1 µM, first compound 0.1 µM
[9] = second compound 0.1 µM, first compound 0.316 µM
[10] = second compound 0.1 µM, first compound 1 µM
[11] = second compound 0.1 µM, first compound 3.16 µM
[12] = second compound 0.1 µM, first compound 10 µM
[13] = second compound 0.316 µM, first compound 0.0316 µM
[14] = second compound 0.316 µM, first compound 0.1 µM
[15] = second compound 0.316 µM, first compound 0.316 µM
[16] = second compound 0.316 µM, first compound 1 µM
[17] = second compound 0.316 µM, first compound 3.16 µM
[18] = second compound 0.316 µM, first compound 10 µM
[19] = second compound 1 µM, first compound 0.0316 µM
[20] = second compound 1 µM, first compound 0.1 µM
[21] = second compound 1 µM, first compound 0.316 µM
[22] = second compound 1 µM, first compound 1 µM
[23] = second compound 1 µM, first compound 3.16 µM
[24] = second compound 1 µM, first compound 10 µM
[25] = second compound 3.16 µM, first compound 0.0316 µM
[26] = second compound 3.16 µM, first compound 0.1 µM
[27] = second compound 3.16 µM, first compound 0.316 µM
[28] = second compound 3.16 µM, first compound 1 µM
[29] = second compound 3.16 µM, first compound 3.16 µM
[30] = second compound 3.16 µM, first compound 10 µM
[31] = second compound 10 µM, first compound 0.0316 µM
[32] = second compound 10 µM, first compound 0.1 µM
[33] = second compound 10 µM, first compound 0.316 µM
[34] = second compound 10 µM, first compound 1 µM
[35] = second compound 10 µM, first compound 3.16 µM
[36] = second compound 10 µM, first compound 10 µM
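Further: spheroids exposed to drugs for 7 days before viability reading.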
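Wherever viability, T/C is given: 100% = DMSO vehicle control viability.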

## CC(C)n1c(=O)n(C)c2cnc3cc(F)c(-c4ccc(OCCCN5CCCCC5)nc4)cc3c21 + Cc1[nH]c2ccc(F)cc2c1-c1nc2c3cccnc3c3ncccc3c2[nH]1
Second compound 0.0316 µM
  IC50: > 10 µM
Second compound 0.1 µM
  IC50: > 10 µM
Second compound 0.316 µM
  IC50: > 10 µM
Second compound 1 µM
  IC50: > 10 µM
Second compound 3.16 µM
  IC50: > 10 µM
Second compound 10 µM
  IC50: > 10 µM
[1]
  viability, T/C: 100%
[2]
  viability, T/C: 82.2%
[3]
  viability, T/C: 81.5%
[4]
  viability, T/C: 87.1%
[5]
  viability, T/C: 80%
[6]
  viability, T/C: 73.4%
[7]
  viability, T/C: 95%
[8]
  viability, T/C: 112%
[9]
  viability, T/C: 91%
[10]
  viability, T/C: 93.9%
[11]
  viability, T/C: 86%
[12]
  viability, T/C: 64.9%
[13]
  viability, T/C: 106%
[14]
  viability, T/C: 102%
[15]
  viability, T/C: 91.4%
[16]
  viability, T/C: 83.7%
[17]
  viability, T/C: 81.9%
[18]
  viability, T/C: 57.6%
[19]
  viability, T/C: 85%
[20]
  viability, T/C: 89%
[21]
  viability, T/C: 97%
[22]
  viability, T/C: 89.4%
[23]
  viability, T/C: 86.8%
[24]
  viability, T/C: 72.1%
[25]
  viability, T/C: 87.9%
[26]
  viability, T/C: 90.3%
[27]
  viability, T/C: 81.4%
[28]
  viability, T/C: 76.3%
[29]
  viability, T/C: 80.6%
[30]
  viability, T/C: 53%
[31]
  viability, T/C: 74.4%
[32]
  viability, T/C: 78.6%
[33]
  viability, T/C: 79.8%
[34]
  viability, T/C: 79.1%
[35]
  viability, T/C: 62.1%
[36]
  viability, T/C: 50.7%

## Cc1cccc(N(C)C(=O)C2C(O)CCN2c2nc(C)cc(C(F)(F)F)c2C#N)c1 (stereo not drawn) + Cc1[nH]c2ccc(F)cc2c1-c1nc2c3cccnc3c3ncccc3c2[nH]1
Second compound 0.0316 µM
  IC50: > 10 µM
Second compound 0.1 µM
  IC50: > 10 µM
Second compound 0.316 µM
  IC50: > 10 µM
Second compound 1 µM
  IC50: > 10 µM
Second compound 3.16 µM
  IC50: > 10 µM
Second compound 10 µM
  IC50: > 10 µM
[1]
  viability, T/C: 106%
[2]
  viability, T/C: 93.3%
[3]
  viability, T/C: 92.7%
[4]
  viability, T/C: 101%
[5]
  viability, T/C: 98.1%
[6]
  viability, T/C: 91.6%
[7]
  viability, T/C: 98.7%
[8]
  viability, T/C: 99.1%
[9]
  viability, T/C: 112%
[10]
  viability, T/C: 85.9%
[11]
  viability, T/C: 104%
[12]
  viability, T/C: 95.1%
[13]
  viability, T/C: 102%
[14]
  viability, T/C: 100%
[15]
  viability, T/C: 91.4%
[16]
  viability, T/C: 88.4%
[17]
  viability, T/C: 110%
[18]
  viability, T/C: 93.7%
[19]
  viability, T/C: 91.4%
[20]
  viability, T/C: 89.4%
[21]
  viability, T/C: 93.9%
[22]
  viability, T/C: 99.4%
[23]
  viability, T/C: 109%
[24]
  viability, T/C: 91.1%
[25]
  viability, T/C: 85.8%
[26]
  viability, T/C: 92.5%
[27]
  viability, T/C: 83.1%
[28]
  viability, T/C: 88%
[29]
  viability, T/C: 93.4%
[30]
  viability, T/C: 83.1%
[31]
  viability, T/C: 70.4%
[32]
  viability, T/C: 73.5%
[33]
  viability, T/C: 83.8%
[34]
  viability, T/C: 75%
[35]
  viability, T/C: 83.7%
[36]
  viability, T/C: 91.4%

## Cn1ncnc1[C@H]1c2n[nH]c(=O)c3cc(F)cc(c23)N[C@@H]1c1ccc(F)cc1 + Cc1[nH]c2ccc(F)cc2c1-c1nc2c3cccnc3c3ncccc3c2[nH]1
Second compound 0.0316 µM
  IC50: > 0.316 µM
Second compound 0.1 µM
  IC50: > 0.316 µM
Second compound 0.316 µM
  IC50: > 0.316 µM
Second compound 1 µM
  IC50: > 0.316 µM
Second compound 3.16 µM
  IC50: > 0.316 µM
Second compound 10 µM
  IC50: > 0.316 µM
Second compound 0.0316 µM, first compound 0.000999 µM
  viability, T/C: 89.4%
Second compound 0.0316 µM, first compound 0.00316 µM
  viability, T/C: 93.6%
Second compound 0.0316 µM, first compound 0.00999 µM
  viability, T/C: 90.2%
[1]
  viability, T/C: 86.6%
Second compound 0.0316 µM, first compound 0.0999 µM
  viability, T/C: 95.2%
[3]
  viability, T/C: 94.7%
Second compound 0.1 µM, first compound 0.000999 µM
  viability, T/C: 101%
Second compound 0.1 µM, first compound 0.00316 µM
  viability, T/C: 98.9%
Second compound 0.1 µM, first compound 0.00999 µM
  viability, T/C: 96.7%
[7]
  viability, T/C: 110%
Second compound 0.1 µM, first compound 0.0999 µM
  viability, T/C: 94.1%
[9]
  viability, T/C: 78.1%
Second compound 0.316 µM, first compound 0.000999 µM
  viability, T/C: 95.2%
Second compound 0.316 µM, first compound 0.00316 µM
  viability, T/C: 94.2%
Second compound 0.316 µM, first compound 0.00999 µM
  viability, T/C: 97.9%
[13]
  viability, T/C: 89.5%
Second compound 0.316 µM, first compound 0.0999 µM
  viability, T/C: 80.4%
[15]
  viability, T/C: 78.4%
Second compound 1 µM, first compound 0.000999 µM
  viability, T/C: 94.8%
Second compound 1 µM, first compound 0.00316 µM
  viability, T/C: 90.9%
Second compound 1 µM, first compound 0.00999 µM
  viability, T/C: 88.6%
[19]
  viability, T/C: 83.5%
Second compound 1 µM, first compound 0.0999 µM
  viability, T/C: 85.9%
[21]
  viability, T/C: 79.5%
Second compound 3.16 µM, first compound 0.000999 µM
  viability, T/C: 89.3%
Second compound 3.16 µM, first compound 0.00316 µM
  viability, T/C: 84.5%
Second compound 3.16 µM, first compound 0.00999 µM
  viability, T/C: 84.7%
[25]
  viability, T/C: 77.7%
Second compound 3.16 µM, first compound 0.0999 µM
  viability, T/C: 81.8%
[27]
  viability, T/C: 72.6%
Second compound 10 µM, first compound 0.000999 µM
  viability, T/C: 73.8%
Second compound 10 µM, first compound 0.00316 µM
  viability, T/C: 85.6%
Second compound 10 µM, first compound 0.00999 µM
  viability, T/C: 86.4%
[31]
  viability, T/C: 76.5%
Second compound 10 µM, first compound 0.0999 µM
  viability, T/C: 72.5%
[33]
  viability, T/C: 74.3%

## O=C(c1cc(Cc2n[nH]c(=O)c3ccccc23)ccc1F)N1CCN(C(=O)C2CC2)CC1 + Cc1[nH]c2ccc(F)cc2c1-c1nc2c3cccnc3c3ncccc3c2[nH]1
Second compound 0.0316 µM
  IC50: > 10 µM
Second compound 0.1 µM
  IC50: > 10 µM
Second compound 0.316 µM
  IC50: > 10 µM
Second compound 1 µM
  IC50: > 10 µM
Second compound 3.16 µM
  IC50: > 10 µM
Second compound 10 µM
  IC50: > 10 µM
[1]
  viability, T/C: 97.8%
[2]
  viability, T/C: 97.8%
[3]
  viability, T/C: 98.6%
[4]
  viability, T/C: 85.8%
[5]
  viability, T/C: 89.8%
[6]
  viability, T/C: 69.8%
[7]
  viability, T/C: 91.6%
[8]
  viability, T/C: 83.3%
[9]
  viability, T/C: 88.3%
[10]
  viability, T/C: 94.7%
[11]
  viability, T/C: 76.8%
[12]
  viability, T/C: 66.2%
[13]
  viability, T/C: 95%
[14]
  viability, T/C: 105%
[15]
  viability, T/C: 91.8%
[16]
  viability, T/C: 104%
[17]
  viability, T/C: 78.5%
[18]
  viability, T/C: 66.3%
[19]
  viability, T/C: 104%
[20]
  viability, T/C: 87.9%
[21]
  viability, T/C: 94.7%
[22]
  viability, T/C: 85.2%
[23]
  viability, T/C: 91.4%
[24]
  viability, T/C: 65.5%
[25]
  viability, T/C: 94%
[26]
  viability, T/C: 83.3%
[27]
  viability, T/C: 88.4%
[28]
  viability, T/C: 80.8%
[29]
  viability, T/C: 75.4%
[30]
  viability, T/C: 57.2%
[31]
  viability, T/C: 77.4%
[32]
  viability, T/C: 73.7%
[33]
  viability, T/C: 75.8%
[34]
  viability, T/C: 66.2%
[35]
  viability, T/C: 72.6%
[36]
  viability, T/C: 58.5%
